{"source": "patent US11617726B2", "about": "“Method for preventing, treating, or ameliorating a microbial infection” (priority 2018, dated 2023)", "system": "Multidrug Resistant Acinetobacter baumannii Isolates", "test": "MIC of the micro-emulsions by broth dilution", "type": "cell-based", "experimental": "Nine sterile 7 mL PJ tubes were arranged in a rack in a row. Each tube contained one mL sterile MHB. Seven tubes were labeled as 7.847 mg+256 μg/mL, 3.923 mg+128 μg/mL, 1.961 mg+64 μg/mL, 0.980 mg+32 μg/mL, 0.490 mg+16 μg/mL, 0.245 mg+8 μg/mL and 0.122 mg+4 μg/mL. The eighth and ninth tubes were labeled as positive and negative controls, respectively.\nThe micro-emulsion made according to Example 1 was serially diluted to give two-fold dilutions as follows: one mL of the micro-emulsion of Example 1 was dispensed in the first tube (labeled as 7.847 mg+256 μg/mL) to give a concentration of 15.69 mg+512 μg drug/mL MHB. One mL of the first tube was added to the second tube (labeled as 3.923 mg+128 μg/mL) to give a concentration of 7.847 mg+256 μg drug/mL MHB. One mL of the second tube was transferred to the third tube (labeled as 1.961 mg+64 μg/mL) to give a concentration of 3.923 mg+128 drug/mL MHB. One mL of the third tube was added to the fourth tube (labeled as 0.980 mg+32 μg/mL) to give a concentration of 1.961 mg+64 drug/mL MHB. One mL of the fourth tube was dispensed in the fifth tube (labeled as 0.490 mg+16 μg/mL) to give a concentration of 0.980 mg+32 drug/mL MHB. One mL of the fifth tube was dispensed in the sixth tube (labeled as 0.245 mg+8 μg/mL) to give a concentration of 0.490 mg+16 μg drug/mL MHB. One mL of the sixth tube was added to the seventh tube (labeled as 0.122 mg+4 μg/mL) to give a concentration of 0.245 mg+8 μg drug/mL MHB. One mL of the content of the seventh tube was discarded. Inoculum suspensions (at 1-2×10^8 CFU/mL) were diluted 1:100 in MHB to obtain 1×10^6 CFU/mL. One mL of the diluted inoculum suspension (1×10^6 CFU/mL) was transferred to each tube except tube number nine.\nAnother nine sterile 7 mL PJ tubes were arranged in a rack in a row. Each tube contained one mL sterile MHB. […]\nAll inoculated tubes were incubated for 16-20 hours at 37° C. aerobically. After this incubation period, MIC was determined manually by observing the lowest concentration of antimicrobial agent showing no visible growth (turbidity). […]"}
{"smiles": "CC1=CC(=O)C(C(C)C)=CC1=O", "note": "[Thymoquinone, 2-isopropyl-5-methylbenzo-1,4-quinone]", "values": [{"measurement": "MIC", "setting": "Isolate 121", "value": 64, "unit": "µg/mL"}, {"measurement": "MIC", "setting": "Isolate 127", "value": 32, "unit": "µg/mL"}, {"measurement": "MIC", "setting": "Isolate 129", "value": 32, "unit": "µg/mL"}]}
